Earlier results as cited in US9662322B2 (TEVA PHARMACEUTICAL INDUSTRIES, LTD., priority 2014, dated 2017).

Settings: cited from earlier work

In the case of `CCN(C(=O)c1c(O)c2c(Cl)cccc2n(C)c1=O)c1ccccc1` [Laquinimod sodium], the Oral bioavailability is given as “high”.
